Test results as given in US20170037028A1 (BAYER PHARMA AKTIENGESELLSCHAFT, priority 2013, published 2017).

Each molecule was assayed against T1, GLUT1 (Homo sapiens, UniProt P11166) (assay: Indirect measurement of GLUT1 activity by quantification of intracellular ATP levels (glucose induced ATP increase)). Conditions: read-out: IC50 regarding glucose induced ATP increase (GLUT1 inhibition).
T1 sequence (P11166 1-492): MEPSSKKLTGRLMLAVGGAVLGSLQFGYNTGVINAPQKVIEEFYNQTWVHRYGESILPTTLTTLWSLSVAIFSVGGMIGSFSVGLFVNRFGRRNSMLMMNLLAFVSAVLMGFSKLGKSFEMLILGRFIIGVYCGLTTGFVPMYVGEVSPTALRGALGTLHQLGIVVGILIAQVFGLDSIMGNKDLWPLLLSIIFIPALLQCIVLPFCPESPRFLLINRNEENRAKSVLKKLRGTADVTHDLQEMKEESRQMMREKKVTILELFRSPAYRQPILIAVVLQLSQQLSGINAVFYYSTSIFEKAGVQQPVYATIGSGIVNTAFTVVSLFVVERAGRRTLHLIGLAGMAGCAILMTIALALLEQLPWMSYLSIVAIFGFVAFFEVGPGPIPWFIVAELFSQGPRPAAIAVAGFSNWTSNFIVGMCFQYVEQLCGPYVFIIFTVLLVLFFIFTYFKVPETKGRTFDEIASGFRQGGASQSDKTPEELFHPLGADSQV
Format: cell-based
Design: endogenous in cells; host or cells: DLD1 or CHO-K1
Procedure, shortened: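 Intracellular ATP was measured by CellTiter-Glo luminescence as an indirect readout of transport: glucose-driven for GLUT1, fructose-driven for GLUT2. DLD1 or CHO-K1 cells were used alongside an oxidative phosphorylation inhibitor. Beforehand, cells were held overnight in glucose-free 1% FCS medium to deplete ATP.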

SMILES | IC50
Cc1nn(Cc2cccc(C#N)c2)c(C)c1NC(=O)c1cc(C(N)=O)nc2cc(F)ccc12 [Example 1454] | 0.0133 µM
Cc1nn(Cc2ccc(C(=O)NCC(C)(C)CO)cc2)c(C)c1NC(=O)c1cc(C(F)(F)F)nc2ccc(Br)cc12 [Example 1134] | 0.0973 µM
Cc1nn(Cc2ccc(F)cc2)c(C)c1NC(=O)c1cc(C(F)(F)F)nc2ccc([N+](=O)[O-])cc12 [Example 1088] | 0.0349 µM
Cc1c(NC(=O)c2cc(C(N)=O)nc3ccccc23)c(C(F)(F)F)nn1C(C)c1ccccc1 (racemic) [Example 1397] | 0.0043 µM
Cc1nn(Cc2ccccc2OC(F)(F)F)c(C)c1NC(=O)c1cc(C(F)(F)F)nc2c(Cl)cc(Cl)cc12 [Example 1288] | 6.25 µM
Cc1c(NC(=O)c2cc(C(N)=O)nc3ccccc23)c(C(F)(F)F)nn1Cc1ccccc1C#N [Example 271, N^4-[1-(2-cyanobenzyl)-5-methyl-3-(trifluoromethyl)-1H-pyrazol-4-yl]quinoline-2,4-dicarboxamide] | 0.0036 µM
Cc1nn(Cc2ccc(F)cc2C#N)c(C)c1NC(=O)c1cc(C(N)=O)nc2cc(F)ccc12 [Example 1660] | 0.0013 µM
COCCNC(=O)c1ccc(Cn2nc(C)c(NC(=O)c3cc(C(F)(F)F)nc4ccc(Br)cc34)c2C)cc1 [Example 137, 6-bromo-N-(1-{4-[(2-methoxyethyl)carbamoyl]benzyl}-3,5-dimethyl-1H-pyrazol-4-yl)-2-(trifluoromethyl)quinoline-4-carboxamide] | 0.0107 µM
Cc1c(NC(=O)c2cc(C(N)=O)nc3ccccc23)c(C(F)(F)F)nn1C(C)c1ccc(C#N)cc1 (racemic) [Example 333, (±)-N^4-{1-[1-(4-cyanophenyl)ethyl]-5-methyl-3-(trifluoromethyl)-1H-pyrazol-4-yl}quinoline-2,4-dicarboxamide] | 0.0006 µM
Cc1nn(Cc2ccc(C(=O)NCCCO)cn2)c(C)c1NC(=O)c1cc(C(F)(F)F)nc2ccc(Br)cc12 [Example 1131] | 0.0867 µM
Cc1cccc(Cn2nc(C(F)(F)F)c(NC(=O)c3cc(C(N)=O)nc4ccccc34)c2C)c1 [Example 1478] | 0.0062 µM
Cc1nn(Cc2ccc(F)cc2)c(C)c1NC(=O)c1cc(C(F)(F)F)nc2c(C(F)(F)F)cccc12 [Example 1307] | 14.3 µM
Cc1nn(Cc2ccc(F)cc2)c(C)c1NC(=O)c1cc(C(F)(F)F)nc2ccc(NS(C)(=O)=O)cc12 [Example 1257] | 2.05 µM
COc1cccc(Cn2nc(C)c(NC(=O)c3cc(C(N)=O)nc4ccc(Br)cc34)c2C)c1 [Example 1458] | 0.0023 µM
Cc1nn(Cc2ccc(F)cc2)c(C)c1NC(=O)c1cc(C2CC2)nc2cccc(F)c12 [Example 46, 2-cyclopropyl-5-fluoro-N-[1-(4-fluorobenzyl)-3,5-dimethyl-1H-pyrazol-4-yl]quinoline-4-carboxamide] | 0.04 µM
Cc1ccc(Cn2nc(C)c(NC(=O)c3cc(C(F)(F)F)nc4c(Cl)cc(Cl)cc34)c2C)cc1 [Example 31, 6,8-dichloro-N-[3,5-dimethyl-1-(4-methylbenzyl)-1H-pyrazol-4-yl]-2-(trifluoromethyl)quinoline-4-carboxamide] | 0.02 µM
CC(=O)Nc1ccc2nc(C(F)(F)F)cc(C(=O)Nc3c(C)nn(Cc4ccc(F)cc4)c3C)c2c1 [Example 1169] | 0.182 µM
Cc1c(NC(=O)c2cc(C(N)=O)nc3ccccc23)c(C(F)(F)F)nn1Cc1ccccc1OC(F)(F)F [Example 1705] | 0.172 µM
CCc1nc(Cn2nc(C(F)(F)F)c(NC(=O)c3cc(C(N)=O)nc4cc(F)c(Cl)cc34)c2C)no1 [Example 409, 6-chloro-N^4-{1-[(5-ethyl-1,2,4-oxadiazol-3-yl)methyl]-5-methyl-3-(trifluoromethyl)-1H-pyrazol-4-yl}-7-fluoroquinoline-2,4-dicarboxamide] | 0.0055 µM
Cc1nn(Cc2ccc(C(=O)NC[C@@H](C)O)cc2)c(C)c1NC(=O)c1cc(C(F)(F)F)nc2ccc(Br)cc12 [Example 1019] | 0.0019 µM
COc1cc(Cn2nc(C)c(NC(=O)c3cc(C)nc4ccc(C)cc34)c2C)cc(OC)c1 [Example 1293] | 7.79 µM
Cc1nn(Cc2ccc(C(=O)O)cn2)c(C)c1NC(=O)c1cc(C(N)=O)nc2ccc(F)cc12 [Example 1275] | 3.5 µM

SMILES | IC50
COCc1ccc(Cn2nc(C(F)(F)F)c(NC(=O)c3cc(C(N)=O)nc4cc(F)ccc34)c2C)cc1 [Example 401, 7-fluoro-N^4-{1-[4-(methoxymethyl)benzyl]-5-methyl-3-(trifluoromethyl)-1H-pyrazol-4-yl}quinoline-2,4-dicarboxamide] | 0.01 µM
CNC(=O)c1ccc(Cn2nc(C(F)(F)F)c(NC(=O)c3cc(C(F)(F)F)nc4ccc(Br)cc34)c2C)nc1 [Example 1078] | 0.0239 µM
Cc1nn(Cc2ccc(C(=O)NCCC(C)O)cc2)c(C)c1NC(=O)c1cc(C(F)(F)F)nc2ccc(Br)cc12 (centres unmarked) [Example 1211] | 0.581 µM
CCCCCN(CCO)C(=O)c1ccc(Cn2nc(C)c(NC(=O)c3cc(C(F)(F)F)nc4ccc(Br)cc34)c2C)cc1 [Example 1228] | 0.962 µM
COc1cc(C(=O)Nc2c(C)nn(Cc3cn4ccccc4n3)c2C)c2ccccc2n1 [Example 1527] | 0.228 µM
COc1ccc(Cn2nc(C(F)(F)F)c(NC(=O)c3cc(C(F)(F)F)nc4ccc(Br)cc34)c2C)cn1 [Example 1027] | 0.003 µM
Cc1cc(C(=O)Nc2c(C)nn(Cc3ccc(F)cc3)c2C)c2cccc(Br)c2n1 [Example 53, 8-bromo-N-[1-(4-fluorobenzyl)-3,5-dimethyl-1H-pyrazol-4-yl]-2-methylquinoline-4-carboxamide] | 0.0524 µM
COc1ccc2nc(C(N)=O)cc(C(=O)Nc3c(C)nn(Cc4ccc(C#N)cc4)c3C)c2c1 [Example 258, N^4-[1-(4-cyanobenzyl)-3,5-dimethyl-1H-pyrazol-4-yl]-6-methoxyquinoline-2,4-dicarboxamide] | 0.001 µM
Cc1nn(Cc2ccc(C#N)cc2)c(C)c1NC(=O)c1cc(C(N)=O)nc2c(F)cccc12 [Example 263, N^4-[1-(4-cyanobenzyl)-3,5-dimethyl-1H-pyrazol-4-yl]-8-fluoroquinoline-2,4-dicarboxamide] | 0.0039 µM
Cc1nn(Cc2ccc(S(C)(=N)=O)cc2)c(C)c1NC(=O)c1cc(C(N)=O)nc2ccccc12 (racemic) [Example 377] | 1.1 µM
COCc1noc(Cn2nc(C)c(NC(=O)c3cc(C(F)(F)F)nc4ccc(Br)cc34)c2C)n1 [Example 1507] | 0.711 µM
Cc1nn(Cc2cc(C(C)C)no2)c(C)c1NC(=O)c1cc(C(N)=O)nc2cc(F)ccc12 [Example 1563] | 0.0355 µM
COc1cc(C(=O)Nc2c(C(F)(F)F)nn(Cc3ccc(F)cc3)c2C)c2ccccc2n1 [Example 1436] | 0.0632 µM
COc1ccc(Cn2nc(C)c(NC(=O)c3cc(C(N)=O)nc4ccc(F)cc34)c2C)cc1 [Example 227, 6-fluoro-N^4-[1-(4-methoxybenzyl)-3,5-dimethyl-1H-pyrazol-4-yl]quinoline-2,4-dicarboxamide] | 0.0046 µM
COc1ccc(Cn2nc(C)c(NC(=O)c3cc(C(N)=O)nc4c(F)cc(Cl)cc34)c2C)cc1 [Example 276, 6-chloro-8-fluoro-N^4-[1-(4-methoxybenzyl)-3,5-dimethyl-1H-pyrazol-4-yl]quinoline-2,4-dicarboxamide] | 0.0013 µM
Cc1nn(Cc2ccccc2)c(C)c1NC(=O)c1cc(C(F)(F)F)nc2ccc(Br)cc12 [Example 33, N-(1-benzyl-3,5-dimethyl-1H-pyrazol-4-yl)-6-bromo-2-(trifluoromethyl)quinoline-4-carboxamide] | 0.025 µM
Cc1nn(Cc2ccc(C(=O)NCc3cccnc3)cc2)c(C)c1NC(=O)c1cc(C(F)(F)F)nc2ccc(Br)cc12 [Example 138, 6-bromo-N-(3,5-dimethyl-1-{4-[(pyridin-3-ylmethyl)carbamoyl]benzyl}-1H-pyrazol-4-yl)-2-(trifluoromethyl)quinoline-4-carboxamide] | 0.0181 µM
COc1cc(C(=O)Nc2c(C)nn(Cc3ccccc3C#N)c2C)c2ccccc2n1 [Example 80, N-[1-(2-cyanobenzyl)-3,5-dimethyl-1H-pyrazol-4-yl]-2-methoxyquinoline-4-carboxamide] | 0.229 µM
Cc1nn(Cc2ccc(F)cc2)c(C)c1NC(=O)c1cc(C(F)(F)F)nc2c(Cl)cc(Cl)cc12 [Example 25, 6,8-dichloro-N-[1-(4-fluorobenzyl)-3,5-dimethyl-1H-pyrazol-4-yl]-2-(trifluoromethyl)quinoline-4-carboxamide] | 0.0157 µM
Cc1nn(Cc2cc(C3CC3)on2)c(C)c1NC(=O)c1cc(C(N)=O)nc2cc(F)ccc12 [Example 418, N^4-{1-[(5-cyclopropyl-1,2-oxazol-3-yl)methyl]-3,5-dimethyl-1H-pyrazol-4-yl}-7-fluoroquinoline-2,4-dicarboxamide] | 0.0041 µM
Cc1nn(Cc2ccc(OC(F)(F)F)cc2)c(C)c1NC(=O)c1cc(C(N)=O)nc2ccc(Br)cc12 [Example 1464] | 0.0055 µM
Cc1nn(Cc2ccc(C(=O)N[C@H](C)[C@@H](C)O)cc2)c(C)c1NC(=O)c1cc(C(F)(F)F)nc2ccc(Br)cc12 (relative stereo) [Example 1057] | 0.0151 µM
